Test results: patent publication US20220289753A1, “SHP2 INHIBITORS” (IRBM S.P.A., priority 2019, published 2022)

Tests used:
[1] = target: T1, SHP-2 enzyme (Met1-Leu525) (Homo sapiens, UniProt Q06124); assay: SHP2 inhibition enzymatic assay (DiFMUP substrate, IRS1 peptide activation); type: biochemical; details: SHP2 wt; activated by 500 nM IRS1 peptide; 75 μM DiFMUP substrate
T1 construct: synthetized by Origene, Met1-Leu525, cat #TP750155; purchased Origene TP750155
T1 sequence (Q06124 1-525): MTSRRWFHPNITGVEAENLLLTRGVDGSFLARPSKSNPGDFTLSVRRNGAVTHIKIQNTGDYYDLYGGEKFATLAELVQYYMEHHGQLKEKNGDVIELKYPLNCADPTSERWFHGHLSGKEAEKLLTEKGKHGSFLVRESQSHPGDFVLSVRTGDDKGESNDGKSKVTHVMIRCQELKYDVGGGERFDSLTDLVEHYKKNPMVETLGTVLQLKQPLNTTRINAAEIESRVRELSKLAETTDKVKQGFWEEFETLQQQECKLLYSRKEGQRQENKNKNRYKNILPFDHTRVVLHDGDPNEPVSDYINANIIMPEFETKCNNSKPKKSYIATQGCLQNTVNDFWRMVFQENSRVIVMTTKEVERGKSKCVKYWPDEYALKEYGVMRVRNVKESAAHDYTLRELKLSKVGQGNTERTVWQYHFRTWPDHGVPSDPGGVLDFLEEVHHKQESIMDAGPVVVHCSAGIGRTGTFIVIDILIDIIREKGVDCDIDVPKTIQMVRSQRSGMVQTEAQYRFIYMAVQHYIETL
In short: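 SHP-2 (Met1-Leu525, 0.5 nM final) preincubated 30 min with compounds and IRS1 activating peptide in HEPES pH 7.2 buffer with NaCl, KCl, EDTA, tween-20, 5 mM DTT. DiFMUP then added for 30 min at room temperature and fluorescence read. IC50 from four-parameter logistic fit of % inhibition.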

[2] = system: ERK phosphorylation in KYSE-520 cells; assay: Phospho-ERK cellular assay (Advanced phospho-ERK1/2 (Thr202/Tyr204) TR-FRET kit); type: cell-based; details: Homo sapiens, KYSE-520, 2 h, KYSE-520 cells, 2 h at 37° C., TR-FRET; read-out: pERK IC50
In short: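 KYSE-520 cells were treated 2 h at 37° C with serially diluted compounds, then lysed. Phospho-ERK1/2 (Thr202/Tyr204) was detected by TR-FRET after overnight antibody incubation at room temperature. IC50 came from a four-parameter logistic fit; lower signal reflects greater SHP2 inhibition.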

| SMILES | IC50 [1] | IC50 [2] |
| --- | --- | --- |
| N[C@@H]1c2ncccc2OC12CCN(c1nc3nc(Sc4ccncc4Cl)cnc3[nH]1)CC2 [Example 163, (R)-1′-(5-((3-chloropyridin-4-yl)thio)-1H-imidazo[4,5-b]pyrazin-2-yl)-3H-spiro[furo[3,2-b]pyridine-2,4′-piperidin]-3-amine] | < 500 nM | > 5000 nM |
| N[C@@H]1c2ccccc2CC12CCN(c1nc3ncc(Sc4ccnc5cccnc45)nc3[nH]1)CC2 [Example 164, (S)-1′-(6-((1,5-naphthyridin-4-yl)thio)-1H-imidazo[4,5-b]pyrazin-2-yl)-1,3-dihydrospiro[indene-2,4′-piperidin]-1-amine] | < 500 nM | < 1000 nM |
| N[C@@H]1c2ccccc2CC12CCN(c1nc3nc(Sc4ccnc(N5CC(O)C5)c4Cl)cnc3[nH]1)CC2 [Example 165, (S)-1-(4-((2-(1-amino-1,3-dihydrospiro[indene-2,4′-piperidin]-1′-yl)-1H-imidazo[4,5-b]pyrazin-5-yl)thio)-3-chloropyridin-2-yl)azetidin-3-ol] | < 500 nM | < 1000 nM |
| Cn1ccc(Sc2cnc3nc(N4CCC5(CC4)Cc4ccccc4[C@H]5N)[nH]c3n2)c(Cl)c1=O [Example 166, (S)-4-((2-(1-amino-1,3-dihydrospiro[indene-2,4′-piperidin]-1′-yl)-1H-imidazo[4,5-b]pyrazin-6-yl)thio)-3-chloro-1-methylpyridin-2(1H)-one] | < 500 nM | < 1000 nM |
| N[C@@H]1c2ccccc2CC12CCN(c1nc3ncc(Sc4cccc5c4OCCO5)nc3[nH]1)CC2 [Example 167, (S)-1′-(6-((2,3-dihydrobenzo[b][1,4]dioxin-5-yl)thio)-1H-imidazo[4,5-b]pyrazin-2-yl)-1,3-dihydrospiro[indene-2,4′-piperidin]-1-amine] | < 500 nM | < 1000 nM |
| N[C@@H]1c2cccnc2CC12CCN(c1nc3ncc(Sc4cc(Cl)c5[nH]c(=O)oc5c4)nc3[nH]1)CC2 [Example 168, (S)-6-((2-(5-amino-5,7-dihydrospiro[cyclopenta[b]pyridine-6,4′-piperidin]-1′-yl)-1H-imidazo[4,5-b]pyrazin-6-yl)thio)-4-chlorobenzo[d]oxazol-2(3H)-one] | < 500 nM | > 5000 nM |
| N[C@@H]1c2cccnc2CC12CCN(c1nc3ncc(Sc4ccc5c(c4Cl)NC(=O)CO5)nc3[nH]1)CC2 [Example 169, (S)-6-((2-(5-amino-5,7-dihydrospiro[cyclopenta[b]pyridine-6,4′-piperidin]-1′-yl)-1H-imidazo[4,5-b]pyrazin-6-yl)thio)-5-chloro-2H-benzo[b][1,4]oxazin-3(4H)-one] | < 500 nM | < 1000 nM |
| N[C@@H]1c2cccnc2CC12CCN(c1nc3ncc(Sc4cccc5c4CCC(=O)N5)nc3[nH]1)CC2 [Example 170, (S)-5-((2-(5-amino-5,7-dihydrospiro[cyclopenta[b]pyridine-6,4′-piperidin]-1′-yl)-1H-imidazo[4,5-b]pyrazin-5-yl)thio)-3,4-dihydroquinolin-2(1H)-one] | < 500 nM | 1000 to 5000 nM |
| N[C@@H]1c2cccnc2CC12CCN(c1nc3ncc(Sc4ccnc(Cl)c4Cl)nc3[nH]1)CC2 [Example 171, (S)-1′-(5-((2,3-dichloropyridin-4-yl)thio)-1H-imidazo[4,5-b]pyrazin-2-yl)-5,7-dihydrospiro[cyclopenta[b]pyridine-6,4′-piperidin]-5-amine] | < 500 nM | < 1000 nM |
| N[C@@H]1c2cccnc2CC12CCN(c1nc3ncc(Sc4cccc(Cl)c4Cl)nc3[nH]1)CC2 [Example 172, (S)-1′-(5-((2,3-dichlorophenyl)thio)-1H-imidazo[4,5-b]pyrazin-2-yl)-5,7-dihydrospiro[cyclopenta[b]pyridine-6,4′-piperidin]-5-amine] | < 500 nM | < 1000 nM |
| CN1C(=O)COc2c(Sc3cnc4nc(N5CCC6(CC5)Cc5ccccc5[C@H]6N)[nH]c4n3)cccc21 [Example 173, (S)-8-((2-(1-amino-1,3-dihydrospiro[indene-2,4′-piperidin]-1′-yl)-1H-imidazo[4,5-b]pyrazin-6-yl)thio)-4-methyl-2H-benzo[b][1,4]oxazin-3(4H)-one] | < 500 nM | 1000 to 5000 nM |
| N[C@@H]1c2ccccc2OC12CCN(c1nc3nc(Sc4ccnc(NC5CC5)c4Cl)cnc3[nH]1)CC2 [Example 174, (R)-1′-(5-((3-chloro-2-(cyclopropylamino)pyridin-4-yl)thio)-1H-imidazo[4,5-b]pyrazin-2-yl)-3H-spiro[benzofuran-2,4′-piperidin]-3-amine] | < 500 nM | < 1000 nM |
| Nc1nccc(Sc2cnc3nc(N4CCC5(CC4)Cc4ccc(F)cc4[C@H]5N)[nH]c3n2)c1Cl [Example 175, (S)-1′-(6-((2-amino-3-chloropyridin-4-yl)thio)-1H-imidazo[4,5-b]pyrazin-2-yl)-6-fluoro-1,3-dihydrospiro[indene-2,4′-piperidin]-1-amine] | < 500 nM | < 1000 nM |
| N[C@@H]1c2ccccc2CC12CCN(c1nc3ncc(Sc4ccnc5ccccc45)nc3[nH]1)CC2 [Example 176, (S)-1′-(6-(quinolin-4-ylthio)-1H-imidazo[4,5-b]pyrazin-2-yl)-1,3-dihydrospiro[indene-2,4′-piperidin]-1-amine] | < 500 nM | < 1000 nM |
| COc1cnccc1Sc1cnc2nc(N3CCC4(CC3)Cc3ccccc3[C@H]4N)[nH]c2n1 [Example 177, (S)-1′-(6-((3-methoxypyridin-4-yl)thio)-1H-imidazo[4,5-b]pyrazin-2-yl)-1,3-dihydrospiro[indene-2,4′-piperidin]-1-amine] | < 500 nM | < 1000 nM |
| N[C@@H]1c2ccccc2CC12CCN(c1nc3ncc(Sc4cccc5[nH]c(=O)oc45)nc3[nH]1)CC2 [Example 178, (S)-7-((2-(1-amino-1,3-dihydrospiro[indene-2,4′-piperidin]-1′-yl)-1H-imidazo[4,5-b]pyrazin-6-yl)thio)benzo[d]oxazol-2(3H)-one] | < 500 nM | 1000 to 5000 nM |
| N[C@@H]1c2ccccc2CC12CCN(c1nc3ncc(Sc4cccc5nccnc45)nc3[nH]1)CC2 [Example 179, (S)-1′-(5-(quinoxalin-5-ylthio)-1H-imidazo[4,5-b]pyrazin-2-yl)-1,3-dihydrospiro[indene-2,4′-piperidin]-1-amine] | < 500 nM | < 1000 nM |
| N[C@@H]1c2ccccc2CC12CCN(c1nc3ncc(Sc4ccnc(N5CCOCC5)c4Cl)nc3[nH]1)CC2 [Example 180, (S)-1′-(5-((3-chloro-2-morpholinopyridin-4-yl)thio)-1H-imidazo[4,5-b]pyrazin-2-yl)-1,3-dihydrospiro[indene-2,4′-piperidin]-1-amine] | < 500 nM | < 1000 nM |
| COC1CN(c2nccc(Sc3cnc4nc(N5CCC6(CC5)Cc5ccccc5[C@H]6N)[nH]c4n3)c2Cl)C1 [Example 181, (S)-1′-(5-((3-chloro-2-(3-methoxyazetidin-1-yl)pyridin-4-yl)thio)-1H-imidazo[4,5-b]pyrazin-2-yl)-1,3-dihydrospiro[indene-2,4′-piperidin]-1-amine] | < 500 nM | > 5000 nM |
| COc1cnccc1Sc1cnc2nc(N3CCC4(CC3)Cc3ccc(F)cc3[C@H]4N)[nH]c2n1 [Example 182] | < 500 nM | < 1000 nM |
| N[C@@H]1c2cc(F)ccc2CC12CCN(c1nc3ncc(Sc4ccncc4Cl)nc3[nH]1)CC2 [Example 183, (S)-1′-(6-((3-chloropyridin-4-yl)thio)-1H-imidazo[4,5-b]pyrazin-2-yl)-6-fluoro-1,3-dihydrospiro[indene-2,4′-piperidin]-1-amine] | < 500 nM | < 1000 nM |
| N[C@@H]1c2cc(F)ccc2CC12CCN(c1nc3ncc(Sc4cccc5c4OCCN5)nc3[nH]1)CC2 [Example 184, (S)-1′-(6-((3,4-dihydro-2H-benzo[b][1,4]oxazin-8-yl)thio)-1H-imidazo[4,5-b]pyrazin-2-yl)-6-fluoro-1,3-dihydrospiro[indene-2,4′-piperidin]-1-amine] | < 500 nM | < 1000 nM |
| Nc1cc(Sc2cnc3nc(N4CCC5(CC4)Cc4ccccc4[C@H]5N)[nH]c3n2)c(Cl)cn1 [Example 185, (S)-1′-(6-((2-amino-5-chloropyridin-4-yl)thio)-1H-imidazo[4,5-b]pyrazin-2-yl)-1,3-dihydrospiro[indene-2,4′-piperidin]-1-amine] | < 500 nM | < 1000 nM |
| COc1cc2c(cc1F)[C@@H](N)C1(CCN(c3nc4ncc(Sc5ccncc5Cl)nc4[nH]3)CC1)C2 [Example 186, (S)-1′-(6-((3-chloropyridin-4-yl)thio)-1H-imidazo[4,5-b]pyrazin-2-yl)-6-fluoro-5-methoxy-1,3-dihydrospiro[indene-2,4′-piperidin]-1-amine] | < 500 nM | < 1000 nM |
